Source: patent US20090098145A1, “METHODS AND COMPOSITIONS FOR TREATING OPHTHALMIC CONDITIONS VIA MODULATION OF MEGALIN ACTIVITY” (Sirion Therapeutics, Inc., priority 2006, published 2009)

Tests used:
megalin [1] = target: megalin (Homo sapiens, UniProt P98164); conditions: cited from earlier work
megalin [2] = assay: Megalin protein level in mouse eyecup membrane fractions by immunoblot; format: in vivo; conditions: MPR-treated mice compared to age-matched wild-type and abcr knockout mice; two immunoreactive bands
Procedure: FIG. 12. Illustrates megalin protein level in the eye cup from mice with different serum RBP-retinol levels. LDL receptors function to uptake RBP-retinol into RPE. RBP knockout mouse and MPR-treated mouse have lower serum RBP-retinol level. Expression of megalin in eyecup tissues from these mice were examined by immunoblot. Membrane fractions of mouse eyecups were prepared from wild-type mouse (WT), RBP knockout mouse (RBP−/−), ABCR null (abcr−/−) and MPR-treated mice (MPR). Two immunoreactive bands were detected (indicated by white arrows in the figure).
Preparation of Megalin-enriched Membranes from Whole Tissue—Sucrose density centrifugation was used to separate the membranous constituents from kidney, retina and RPE-eyecup (RPE plus choroid and sclera) samples. Following dissection, tissue samples were homogenized in a buffer containing 0.25 M sucrose (pH 7.5). The homogenates were centrifuged at 27,000×g for 20 min. The supernatant fraction was discarded and the resulting pellet (P1) was homogenized in a buffer containing 0.5% CHAPS. […]
Immunoblot Analyses—Protein samples which were used for immunoblot analyses were resuspended in SDS loading buffer. […] The membrane was washed four times, developed with ChemiGlow West Substrate (Alpha Innotech, San Leandro, Calif.) and then visualized by a luminescence imager (Fluor Chem from Alpha Innotech).

[3] = in vivo; cited from earlier work
human RPE cells [4] = assay: Uptake of RBP-retinol in human RPE cell cultures after antibody or RAP blocking (HPLC of intracellular atRE and atROL); format: cell-based; conditions: RAP added to basal chamber, 2 hours at 4° C.; RBP-retinol (10 μM) in basal media; vs pre-immune rabbit IgG
human RPE cells [5] = assay: Uptake of Alexa Fluor 488-labelled RBP* and IRBP* by RPE cells with and without RAP (fluorescence microscopy, retinyl esters by HPLC); format: cell-based
Procedure: FIG. 13. Illustrates uptake of RBP- and IRBP-retinol into human RPE. Holo-RBP and IRBP were covalently labeled with a fluorescent probe (Alexa Fluor 488). The labeled proteins (RBP* and IRBP*) were added to either the basal (RBP*) or apical (IRBP*) compartments of the RPE cell culture system. Following a 1 hour incubation at 37° C., the media were removed, the cells were extensively washed and the tissues samples analyzed by fluorescence microscopy.
FIG. 14. Illustrates that RAP inhibits basal uptake of RBP-retinol and apical uptake of IRBP-retinol. Uptake of IRBP* and RBP* by RPE cells was monitored before (panels A and B, respectively) and after (panels D and E, respectively) treatment with the LDL receptor antagonist, RAP. […] To ensure that retinol was also taken into the RPE cells, the cells were washed, collected and analyzed for retinoid content by HPLC. Uptake of retinol into RPE cells results in rapid esterification resulting in retinyl ester formation.

LRP = LRP (Homo sapiens, UniProt Q07954); conditions: cited from earlier work
gp330 = gp330 (Rattus norvegicus, UniProt P98158); conditions: cited from earlier work
VLDL receptor = VLDL receptor (Homo sapiens, UniProt P98155); conditions: cited from earlier work
LDL receptor = LDL receptor (Homo sapiens, UniProt P01130); conditions: cited from earlier work
[6] = target: LDL receptors (on human RPE cells); assay: cell-based or functional assay
[7] = RAP treatment, fluorescence microscopy

Chain of megalin (Homo sapiens, UniProt P98164) (P98164 26-4655, species assumed): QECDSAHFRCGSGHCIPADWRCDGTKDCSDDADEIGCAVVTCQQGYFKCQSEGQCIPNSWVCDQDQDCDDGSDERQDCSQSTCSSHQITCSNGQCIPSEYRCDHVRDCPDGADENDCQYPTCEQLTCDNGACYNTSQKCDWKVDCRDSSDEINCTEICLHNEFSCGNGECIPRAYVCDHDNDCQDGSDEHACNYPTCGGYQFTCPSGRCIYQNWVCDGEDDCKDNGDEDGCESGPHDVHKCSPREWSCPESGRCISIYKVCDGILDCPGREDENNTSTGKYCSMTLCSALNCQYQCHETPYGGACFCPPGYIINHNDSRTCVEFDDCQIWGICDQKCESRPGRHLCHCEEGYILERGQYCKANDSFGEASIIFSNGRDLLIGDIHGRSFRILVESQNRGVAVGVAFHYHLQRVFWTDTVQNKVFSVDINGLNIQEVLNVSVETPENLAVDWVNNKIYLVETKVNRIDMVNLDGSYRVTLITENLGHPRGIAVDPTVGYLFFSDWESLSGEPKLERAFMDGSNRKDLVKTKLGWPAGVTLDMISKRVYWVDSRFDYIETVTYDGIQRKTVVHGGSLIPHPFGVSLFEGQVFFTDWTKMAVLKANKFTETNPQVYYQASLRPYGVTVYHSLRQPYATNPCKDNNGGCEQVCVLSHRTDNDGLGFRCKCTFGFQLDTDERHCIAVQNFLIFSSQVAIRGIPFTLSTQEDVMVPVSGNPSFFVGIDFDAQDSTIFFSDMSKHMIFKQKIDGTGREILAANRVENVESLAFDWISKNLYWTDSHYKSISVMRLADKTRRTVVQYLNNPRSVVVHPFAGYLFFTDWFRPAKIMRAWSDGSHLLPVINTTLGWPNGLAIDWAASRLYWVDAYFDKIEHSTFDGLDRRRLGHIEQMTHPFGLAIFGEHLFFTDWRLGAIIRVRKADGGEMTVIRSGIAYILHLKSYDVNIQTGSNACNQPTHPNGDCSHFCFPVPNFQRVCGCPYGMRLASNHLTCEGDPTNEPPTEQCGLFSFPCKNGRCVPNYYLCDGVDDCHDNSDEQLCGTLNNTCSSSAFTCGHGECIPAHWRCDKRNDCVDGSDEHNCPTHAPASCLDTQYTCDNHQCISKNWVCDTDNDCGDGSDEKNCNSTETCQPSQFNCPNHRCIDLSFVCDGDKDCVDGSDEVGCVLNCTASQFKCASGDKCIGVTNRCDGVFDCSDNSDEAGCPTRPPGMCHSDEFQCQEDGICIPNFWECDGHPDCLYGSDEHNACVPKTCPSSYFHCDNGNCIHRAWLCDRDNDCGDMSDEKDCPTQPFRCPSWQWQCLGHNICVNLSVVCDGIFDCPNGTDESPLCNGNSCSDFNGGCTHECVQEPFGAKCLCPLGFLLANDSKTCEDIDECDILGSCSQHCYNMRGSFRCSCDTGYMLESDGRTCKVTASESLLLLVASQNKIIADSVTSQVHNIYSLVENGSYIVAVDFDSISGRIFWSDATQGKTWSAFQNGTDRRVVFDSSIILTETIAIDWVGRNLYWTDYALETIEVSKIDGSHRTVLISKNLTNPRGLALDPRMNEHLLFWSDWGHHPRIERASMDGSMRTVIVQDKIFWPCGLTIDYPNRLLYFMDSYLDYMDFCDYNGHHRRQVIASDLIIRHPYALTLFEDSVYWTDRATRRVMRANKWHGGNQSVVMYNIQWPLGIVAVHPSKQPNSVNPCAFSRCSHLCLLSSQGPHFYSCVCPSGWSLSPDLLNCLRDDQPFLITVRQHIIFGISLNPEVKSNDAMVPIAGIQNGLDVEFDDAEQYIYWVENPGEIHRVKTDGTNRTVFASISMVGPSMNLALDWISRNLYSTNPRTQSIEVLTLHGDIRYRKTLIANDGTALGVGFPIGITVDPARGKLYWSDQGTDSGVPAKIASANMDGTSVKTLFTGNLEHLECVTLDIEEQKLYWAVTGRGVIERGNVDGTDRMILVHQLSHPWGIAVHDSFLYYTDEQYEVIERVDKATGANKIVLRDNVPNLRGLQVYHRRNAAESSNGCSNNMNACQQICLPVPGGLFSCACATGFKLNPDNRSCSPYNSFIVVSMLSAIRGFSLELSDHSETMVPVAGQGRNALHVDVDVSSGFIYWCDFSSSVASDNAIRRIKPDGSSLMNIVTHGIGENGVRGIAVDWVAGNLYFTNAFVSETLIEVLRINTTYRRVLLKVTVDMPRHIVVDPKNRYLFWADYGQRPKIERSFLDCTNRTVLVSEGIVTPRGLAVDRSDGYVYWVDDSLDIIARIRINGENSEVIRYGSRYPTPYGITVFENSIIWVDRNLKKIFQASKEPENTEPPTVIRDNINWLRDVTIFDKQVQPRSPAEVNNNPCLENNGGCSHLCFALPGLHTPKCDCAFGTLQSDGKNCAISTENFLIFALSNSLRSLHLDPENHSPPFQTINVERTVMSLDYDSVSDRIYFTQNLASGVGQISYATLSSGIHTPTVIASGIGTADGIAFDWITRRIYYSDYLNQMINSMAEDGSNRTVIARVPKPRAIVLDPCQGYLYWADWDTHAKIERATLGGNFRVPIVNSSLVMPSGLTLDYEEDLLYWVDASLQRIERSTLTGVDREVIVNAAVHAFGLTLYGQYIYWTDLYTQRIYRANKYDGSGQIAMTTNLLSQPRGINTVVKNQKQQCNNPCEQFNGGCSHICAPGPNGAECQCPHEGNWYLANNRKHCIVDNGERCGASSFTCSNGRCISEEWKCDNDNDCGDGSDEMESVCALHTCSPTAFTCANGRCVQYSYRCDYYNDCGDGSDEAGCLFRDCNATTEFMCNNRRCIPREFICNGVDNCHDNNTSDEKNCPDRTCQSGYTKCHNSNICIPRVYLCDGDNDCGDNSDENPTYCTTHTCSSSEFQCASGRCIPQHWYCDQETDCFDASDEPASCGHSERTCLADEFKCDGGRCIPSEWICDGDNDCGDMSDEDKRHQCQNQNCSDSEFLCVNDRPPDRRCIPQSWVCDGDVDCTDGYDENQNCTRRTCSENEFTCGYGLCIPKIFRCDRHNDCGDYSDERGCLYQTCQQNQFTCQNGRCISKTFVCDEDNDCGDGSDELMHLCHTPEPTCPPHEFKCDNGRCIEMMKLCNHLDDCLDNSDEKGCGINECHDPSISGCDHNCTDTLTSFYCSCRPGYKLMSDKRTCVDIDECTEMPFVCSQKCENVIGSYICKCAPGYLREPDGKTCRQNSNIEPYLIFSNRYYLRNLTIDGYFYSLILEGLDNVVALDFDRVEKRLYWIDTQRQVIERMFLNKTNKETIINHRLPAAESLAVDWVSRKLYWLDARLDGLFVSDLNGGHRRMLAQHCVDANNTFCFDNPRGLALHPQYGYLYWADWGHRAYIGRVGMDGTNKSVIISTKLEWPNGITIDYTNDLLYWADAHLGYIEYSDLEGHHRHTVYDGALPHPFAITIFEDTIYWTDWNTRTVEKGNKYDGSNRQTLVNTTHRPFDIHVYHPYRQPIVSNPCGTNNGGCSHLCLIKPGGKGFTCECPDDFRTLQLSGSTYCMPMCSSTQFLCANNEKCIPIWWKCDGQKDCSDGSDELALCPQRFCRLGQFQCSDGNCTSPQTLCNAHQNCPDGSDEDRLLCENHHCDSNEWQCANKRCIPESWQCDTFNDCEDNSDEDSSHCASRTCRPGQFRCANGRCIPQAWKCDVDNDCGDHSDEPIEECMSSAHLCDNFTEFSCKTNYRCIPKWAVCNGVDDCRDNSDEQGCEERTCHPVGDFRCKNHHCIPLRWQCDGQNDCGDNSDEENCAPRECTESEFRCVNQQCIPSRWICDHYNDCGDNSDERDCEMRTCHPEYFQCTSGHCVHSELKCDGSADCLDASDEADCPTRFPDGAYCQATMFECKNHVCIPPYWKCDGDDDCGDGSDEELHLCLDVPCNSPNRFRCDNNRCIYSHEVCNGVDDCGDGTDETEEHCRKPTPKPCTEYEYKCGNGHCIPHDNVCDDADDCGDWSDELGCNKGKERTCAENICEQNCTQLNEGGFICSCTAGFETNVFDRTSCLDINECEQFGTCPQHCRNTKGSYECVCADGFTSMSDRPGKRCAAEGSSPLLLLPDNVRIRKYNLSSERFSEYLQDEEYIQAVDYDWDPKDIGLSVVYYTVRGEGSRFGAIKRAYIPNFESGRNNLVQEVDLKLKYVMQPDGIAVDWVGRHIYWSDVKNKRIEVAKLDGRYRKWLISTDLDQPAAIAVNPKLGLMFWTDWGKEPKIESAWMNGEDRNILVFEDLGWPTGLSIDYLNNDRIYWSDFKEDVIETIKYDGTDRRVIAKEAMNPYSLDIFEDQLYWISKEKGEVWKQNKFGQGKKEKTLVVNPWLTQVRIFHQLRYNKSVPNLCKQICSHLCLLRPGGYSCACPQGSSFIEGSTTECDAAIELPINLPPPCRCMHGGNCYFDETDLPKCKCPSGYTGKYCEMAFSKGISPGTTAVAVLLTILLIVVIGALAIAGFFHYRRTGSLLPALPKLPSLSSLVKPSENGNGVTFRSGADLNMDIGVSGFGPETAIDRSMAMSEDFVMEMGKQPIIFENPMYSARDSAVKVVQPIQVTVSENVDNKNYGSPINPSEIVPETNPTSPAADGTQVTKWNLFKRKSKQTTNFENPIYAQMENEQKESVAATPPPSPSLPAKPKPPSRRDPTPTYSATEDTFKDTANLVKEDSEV

Compound: gentamicin [reference compound]
- molecules bound per megalin protein (megalin [1]): 60-100

Compound: COc1ccc(NC(=O)\C=C(C)/C=C/C=C(C)\C=C\C2=C(C)CCCC2(C)C)cc1 (stereo in doubt) [MPR, 4-methoxyphenylretinamide]
- expression of megalin-immunoreactive proteins in eyecup (megalin [2]): reduced expression
- retinol and RBP levels in serum [3]: reduce

Compound: RAP: 39 kDa receptor-associated protein, chaperone and universal ligand binding antagonist of LDL receptor gene family members
- inhibition of RBP-retinol uptake by RAP (human RPE cells [4]): 47%
- reduction in retinol uptake as measured by retinyl ester content (human RPE cells [5]; RAP pre-treatment, retinyl esters by HPLC): ~50%
- apical uptake of IRBP* (human RPE cells [5]; [7]): completely suppressed
- basal uptake of RBP* (human RPE cells [5]; [7]): completely suppressed
- Kd (LRP): 4 nM
- Kd (gp330): 8 nM
- Kd (VLDL receptor): 0.7 nM
- Kd (LDL receptor): 500 nM
- binding sites occupied on the receptor protein megalin (megalin [1]): two

Compound: receptor-associated protein (RAP) obtained from Oxford Biomedical Research
- inhibition of basal RBP-retinol uptake in human RPE cultures (HPLC of intracellular atRE and atROL) after RAP pre-treatment [6]: 47%
- reduction in retinol uptake as measured by retinyl ester content (HPLC) after RAP pre-treatment [6]: 50%
